According to ChEMBL document CHEMBL4507319 (2021):

Columns and labels:
Settings in all cases: Compound concentration 1.0 uM
[1] = target: Receptor tyrosine-protein kinase erbB-2 (Homo sapiens) (UniProt P04626); test: ErbB2(h) Eurofins kinase panel
[2] = target: T1, MAP kinase-activated protein kinase 5 (Homo sapiens) (UniProt Q8IW41); test: PRAK(h) Eurofins kinase panel
T1 sequence (whole entry): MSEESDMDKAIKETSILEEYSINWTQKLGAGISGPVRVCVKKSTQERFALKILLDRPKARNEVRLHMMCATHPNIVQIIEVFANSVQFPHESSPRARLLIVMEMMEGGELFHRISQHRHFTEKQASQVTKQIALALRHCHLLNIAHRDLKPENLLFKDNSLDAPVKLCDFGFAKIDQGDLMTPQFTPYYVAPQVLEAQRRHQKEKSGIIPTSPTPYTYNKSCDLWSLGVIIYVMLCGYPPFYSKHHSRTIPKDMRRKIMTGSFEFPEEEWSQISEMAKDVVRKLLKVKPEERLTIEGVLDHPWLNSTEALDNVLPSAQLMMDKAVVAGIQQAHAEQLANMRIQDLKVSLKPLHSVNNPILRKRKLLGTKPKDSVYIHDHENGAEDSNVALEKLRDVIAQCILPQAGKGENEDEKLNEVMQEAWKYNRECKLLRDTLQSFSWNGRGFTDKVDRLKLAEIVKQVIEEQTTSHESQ

[3] = target: T2, Ephrin type-A receptor 3 (Homo sapiens) (UniProt P29320); test: EphA3(h) Eurofins kinase panel
T2 sequence (whole entry): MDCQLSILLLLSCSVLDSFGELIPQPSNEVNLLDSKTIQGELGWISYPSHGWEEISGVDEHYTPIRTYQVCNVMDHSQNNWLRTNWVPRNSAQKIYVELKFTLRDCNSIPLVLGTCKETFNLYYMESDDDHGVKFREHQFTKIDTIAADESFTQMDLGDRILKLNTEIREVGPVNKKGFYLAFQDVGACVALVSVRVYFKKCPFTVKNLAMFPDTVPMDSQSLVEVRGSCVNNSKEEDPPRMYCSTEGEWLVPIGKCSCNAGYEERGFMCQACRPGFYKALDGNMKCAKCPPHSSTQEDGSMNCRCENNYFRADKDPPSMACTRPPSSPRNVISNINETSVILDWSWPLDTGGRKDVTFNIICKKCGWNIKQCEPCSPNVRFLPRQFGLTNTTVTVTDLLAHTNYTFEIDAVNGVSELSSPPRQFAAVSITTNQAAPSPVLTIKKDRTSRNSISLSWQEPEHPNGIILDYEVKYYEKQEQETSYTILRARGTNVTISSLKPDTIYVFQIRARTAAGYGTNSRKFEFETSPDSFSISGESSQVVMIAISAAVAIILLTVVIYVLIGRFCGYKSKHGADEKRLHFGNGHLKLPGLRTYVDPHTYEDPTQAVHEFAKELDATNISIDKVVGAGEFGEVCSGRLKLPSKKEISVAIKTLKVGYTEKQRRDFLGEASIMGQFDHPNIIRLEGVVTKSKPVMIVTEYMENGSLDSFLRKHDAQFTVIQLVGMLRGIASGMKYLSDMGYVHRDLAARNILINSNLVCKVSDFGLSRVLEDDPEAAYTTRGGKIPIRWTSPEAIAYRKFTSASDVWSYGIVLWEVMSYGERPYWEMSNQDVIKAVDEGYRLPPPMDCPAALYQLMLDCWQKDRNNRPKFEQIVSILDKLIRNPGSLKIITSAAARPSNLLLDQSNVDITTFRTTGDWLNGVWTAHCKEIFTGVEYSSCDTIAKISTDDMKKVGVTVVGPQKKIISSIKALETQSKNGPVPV

[4] = target: T3, NUAK family SNF1-like kinase 1 (Homo sapiens) (UniProt O60285); test: ARK5(h) Eurofins kinase panel
T3 sequence (whole entry): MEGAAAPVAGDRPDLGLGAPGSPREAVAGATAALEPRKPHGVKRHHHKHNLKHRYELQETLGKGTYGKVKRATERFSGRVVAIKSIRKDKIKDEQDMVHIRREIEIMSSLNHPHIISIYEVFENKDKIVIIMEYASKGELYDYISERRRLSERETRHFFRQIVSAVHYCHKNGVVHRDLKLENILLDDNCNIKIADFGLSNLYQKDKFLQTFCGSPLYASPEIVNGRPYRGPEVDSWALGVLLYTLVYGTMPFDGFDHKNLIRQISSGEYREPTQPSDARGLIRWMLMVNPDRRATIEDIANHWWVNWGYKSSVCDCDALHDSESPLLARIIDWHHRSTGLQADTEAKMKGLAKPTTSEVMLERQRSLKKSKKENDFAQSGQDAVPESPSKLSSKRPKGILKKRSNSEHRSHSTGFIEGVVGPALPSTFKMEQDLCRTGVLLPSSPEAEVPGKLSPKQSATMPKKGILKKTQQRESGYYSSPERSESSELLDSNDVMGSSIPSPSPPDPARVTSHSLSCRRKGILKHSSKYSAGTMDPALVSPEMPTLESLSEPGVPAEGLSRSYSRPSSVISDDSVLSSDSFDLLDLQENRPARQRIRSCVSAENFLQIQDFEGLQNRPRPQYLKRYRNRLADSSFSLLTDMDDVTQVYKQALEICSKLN

[5] = target: T4, Serine/threonine-protein kinase BRSK1 (Homo sapiens) (UniProt Q8TDC3); test: BrSK1(h) Eurofins kinase panel
T4 sequence (whole entry): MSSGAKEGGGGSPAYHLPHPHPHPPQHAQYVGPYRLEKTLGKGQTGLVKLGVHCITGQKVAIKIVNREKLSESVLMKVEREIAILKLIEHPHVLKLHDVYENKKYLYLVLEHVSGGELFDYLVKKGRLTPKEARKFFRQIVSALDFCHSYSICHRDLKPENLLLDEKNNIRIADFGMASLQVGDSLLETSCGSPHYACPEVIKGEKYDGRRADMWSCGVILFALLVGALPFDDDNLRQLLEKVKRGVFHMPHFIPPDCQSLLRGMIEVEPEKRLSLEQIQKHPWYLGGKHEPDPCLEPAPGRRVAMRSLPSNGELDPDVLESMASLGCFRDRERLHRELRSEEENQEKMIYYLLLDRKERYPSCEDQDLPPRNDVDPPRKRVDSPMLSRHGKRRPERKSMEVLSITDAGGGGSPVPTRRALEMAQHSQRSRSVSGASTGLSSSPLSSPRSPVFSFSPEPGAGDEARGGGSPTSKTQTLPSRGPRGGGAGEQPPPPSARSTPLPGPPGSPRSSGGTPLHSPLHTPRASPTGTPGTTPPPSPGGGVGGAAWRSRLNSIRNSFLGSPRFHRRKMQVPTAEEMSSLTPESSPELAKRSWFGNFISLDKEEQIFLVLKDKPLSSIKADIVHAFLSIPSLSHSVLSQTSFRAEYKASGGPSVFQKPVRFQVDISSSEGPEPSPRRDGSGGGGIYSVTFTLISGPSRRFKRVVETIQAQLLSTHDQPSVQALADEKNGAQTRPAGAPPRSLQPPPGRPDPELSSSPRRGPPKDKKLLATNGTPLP

[6] = target: Tyrosine-protein kinase SYK (Homo sapiens) (UniProt P43405); test: Syk(h) Eurofins kinase panel

Measured: % residual kinase activity

Sequence of Receptor tyrosine-protein kinase erbB-2 (Homo sapiens) (P04626 whole entry): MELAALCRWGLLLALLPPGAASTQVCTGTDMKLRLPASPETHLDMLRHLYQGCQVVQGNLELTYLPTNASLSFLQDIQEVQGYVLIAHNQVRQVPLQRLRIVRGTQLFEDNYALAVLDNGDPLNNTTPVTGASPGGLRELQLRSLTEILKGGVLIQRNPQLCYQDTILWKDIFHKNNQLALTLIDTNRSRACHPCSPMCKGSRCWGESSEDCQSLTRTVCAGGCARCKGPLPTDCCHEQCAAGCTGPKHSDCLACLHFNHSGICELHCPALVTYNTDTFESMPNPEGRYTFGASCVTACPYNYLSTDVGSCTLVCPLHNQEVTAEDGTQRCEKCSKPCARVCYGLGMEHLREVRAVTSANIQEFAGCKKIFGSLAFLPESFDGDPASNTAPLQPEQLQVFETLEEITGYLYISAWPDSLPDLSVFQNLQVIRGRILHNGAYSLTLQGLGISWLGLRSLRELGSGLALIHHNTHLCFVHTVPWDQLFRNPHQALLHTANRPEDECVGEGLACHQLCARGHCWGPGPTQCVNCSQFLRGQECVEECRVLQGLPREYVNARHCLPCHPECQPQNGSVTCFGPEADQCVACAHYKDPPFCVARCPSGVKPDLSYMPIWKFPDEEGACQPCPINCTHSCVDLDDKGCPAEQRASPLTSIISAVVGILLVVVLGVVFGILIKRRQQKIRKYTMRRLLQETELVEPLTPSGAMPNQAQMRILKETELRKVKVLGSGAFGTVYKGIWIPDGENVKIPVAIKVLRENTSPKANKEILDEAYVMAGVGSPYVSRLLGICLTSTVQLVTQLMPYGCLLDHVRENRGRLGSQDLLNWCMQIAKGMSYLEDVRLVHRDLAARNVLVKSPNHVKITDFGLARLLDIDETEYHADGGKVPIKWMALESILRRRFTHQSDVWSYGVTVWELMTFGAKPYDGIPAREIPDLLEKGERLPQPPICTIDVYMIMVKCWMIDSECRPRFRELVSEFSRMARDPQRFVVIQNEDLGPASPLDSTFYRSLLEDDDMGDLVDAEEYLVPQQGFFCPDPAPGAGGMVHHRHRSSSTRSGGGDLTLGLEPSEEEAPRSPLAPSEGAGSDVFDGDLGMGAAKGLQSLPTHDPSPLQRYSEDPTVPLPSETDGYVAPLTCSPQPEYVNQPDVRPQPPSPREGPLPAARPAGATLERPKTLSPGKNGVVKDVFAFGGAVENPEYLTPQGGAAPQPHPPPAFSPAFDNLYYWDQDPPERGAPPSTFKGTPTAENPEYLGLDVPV

CCc1ccccc1C(=O)Nc1n[nH]c2c(C)c(F)c(C3C(C#N)=C(C)N(C)C(C)=C3C#N)cc12 [BAY-3827]
inactive: [1] 95% | [2] 87% | [3] 112% | [4] 21% | [5] 64% | [6] 106%
